Where two headings read alike, the source gives them in different places.
Experiments:
ciPTEC [1] = system: ciPTEC
Protocol: Medium and cell lysate samples were taken at 1, 2, 3 and 4 h. Each time point was measured in duplicate. Preincubation (t0) analyte concentrations in medium were also analyzed.

[2] = Metabolism of IGSH in culture medium; assay type: in vitro ADME
Protocol: During ibrutinib incubations, IGSH was formed intracellularly and transported extracellularly where it was metabolized to ICGS and further to ICYS. IGSH and ICYS were mainly found intracellularly. […] Medium composition influences the metabolism of IGSH. IGSH was metabolized 32% faster in medium with 10% calf serum, when compared to serum-free samples. Medium that was pre-incubated with ciPTEC for 48 h (conditioned medium) was included in the experiments to investigate the possible role of secreted enzymes in the medium. The metabolism of IGSH to ICGS appeared to be 36% faster in conditioned medium.

ɣ-GT from equine kidney = assay: ɣ-glutamyl transferase assay (conversion of IGSH to ICGS); assay type: biochemical; details: approximate kinetic parameters
Protocol: IGSH was incubated with 50 mU/L ɣ-GT in a concentration range of 10–10,000 nM in phosphate buffer (100 mM, pH 7.4) at 37 °C. Michaelis-Menten kinetics were calculated by Eadie-Hofstee transformation.

[3] = Half-life of IGSH in human plasma; assay type: in vitro ADME; details: 37 °C, in vitro
[4] = Ibrutinib and SMT-conjugate pharmacokinetics in human subjects (plasma of patients A and B); details: for concentration at 2.5 h: sample ID 13, T 2.5 h; for concentration at 2.5 h / concentration at 3.8 h / concentration at 2.8 h / concentration at 4.1 h / concentration at 4.4 h / concentration at 2.4 h / concentration at 3.9 h: group max; for concentration at 2.8 h: sample ID 4, T 2.8 h; for concentration at 2.4 h: sample ID 12, T 2.4 h; for concentration at 3.9 h: sample ID 17, T 3.9 h
Protocol: (§1) For analysis, 200 μL acetonitrile containing the internal standards was added to 100 μL sample. After mixing and centrifuging, 200 μL supernatant was transferred, and thereafter the solvent was partially evaporated. Before the samples were analyzed by ultra-high-performance liquid chromatography with mass spectrometer detection [21], 100 μL of mobile phase (water:acetonitrile:formic acid, 90:10:0.1 (v:v:v)) was added.
(§2) When no time was available at all, the sample was omitted. […] Pharmacokinetic (PK) data was analyzed using the PKNCA package (version 0.8.1) [22] for the statistical software R (version 3.4.2) [23] and RStudio (version 1.1.383) [24].

clinical [5] = details: male, human, in vivo, 140 mg
Protocol: as §1
Time-concentration data of three patients were analyzed. […] When no time was available at all, the sample was omitted. […] Pharmacokinetic (PK) data was analyzed using the PKNCA package (version 0.8.1) [22] for the statistical software R (version 3.4.2) [23] and RStudio (version 1.1.383) [24].

[6] = human, in vivo
Protocol: as §1, §2

ciPTEC [7] = assay type: cell-based; details: 2 μM ibrutinib with efflux transporter inhibitors, 48 h
Protocol: Cytotoxicity was evaluated using a Presto-blue assay as follows: cells were incubated for 1 h with Presto-blue solution (100 μL/well) at 37 °C and […] read using a Jasco FP8300 fluorometer (Tokyo, Japan; excitation wavelength: 560 nm, emission wavelength: 590 nm).

clinical [8] = details: human, in vivo
Protocol: as §1, §2

BCRP = system: BCRP; design: method as in PMID 27001813; details: cited from earlier work
ɣ-GT [9] = biological target: T1, ɣ-GT (Homo sapiens, UniProt P19440); assay: ɣ-GT inhibition in ciPTEC; assay type: cell-based; details: 100 μM acivicin pre-incubation 2.5 h, 2 μM ibrutinib, 4 h, intra- and extracellularly
T1 construct: host or cells: ciPTEC (human conditionally immortalized proximal tubule epithelial cells)
Protocol: The formation of metabolites in medium and cells was monitored after 4 h. Ɣ-GT activity in human plasma and calf serum was measured on a Beckmann Coulter AU5800 (Fullerton, CA, USA) clinical chemistry analyzer, with a limit of quantitation of 1 U/L.

ɣ-GT [10] = system: ɣ-GT; design: method as in PMID 9178957; details: cited from earlier work
[11] = human, 560 mg, Concentration, patient B, 1xdd 560mg
[12] = patient A, sample ID 15, T NA, 1xdd 420mg, omitted (no group)
[13] = patient A, sample ID 22, T NA, 1xdd 420mg, omitted (no group)
[14] = human, in vivo, 560 mg, Concentration, patient B, 1xdd 560mg

T1 sequence (P19440 whole entry): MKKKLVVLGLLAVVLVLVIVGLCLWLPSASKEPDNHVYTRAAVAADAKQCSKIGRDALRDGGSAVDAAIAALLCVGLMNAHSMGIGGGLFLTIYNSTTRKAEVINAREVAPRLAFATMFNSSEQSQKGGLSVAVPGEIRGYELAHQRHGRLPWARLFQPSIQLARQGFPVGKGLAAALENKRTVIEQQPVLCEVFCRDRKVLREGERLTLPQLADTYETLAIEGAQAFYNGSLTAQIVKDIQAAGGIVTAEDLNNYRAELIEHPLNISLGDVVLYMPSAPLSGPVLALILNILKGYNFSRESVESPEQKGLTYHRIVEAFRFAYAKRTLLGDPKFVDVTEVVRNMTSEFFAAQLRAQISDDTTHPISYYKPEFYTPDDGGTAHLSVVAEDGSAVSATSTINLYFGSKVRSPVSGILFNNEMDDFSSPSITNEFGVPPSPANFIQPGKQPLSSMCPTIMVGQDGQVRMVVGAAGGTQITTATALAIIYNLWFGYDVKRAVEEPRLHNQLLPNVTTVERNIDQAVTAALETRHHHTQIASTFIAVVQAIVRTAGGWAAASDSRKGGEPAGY

With `Nc1ncnc2c1c(-c1ccc(Oc3ccccc3)cc1)nn2[C@@H]1CCCN(C(=O)CCSC[C@H](NC(=O)CC[C@H](N)C(=O)O)C(=O)NCC(=O)O)C1` [IGSH] the “uptake into ciPTEC” value (ciPTEC [1]; incubating with IGSH (1 μM) directly for 4 h) was “no uptake”, the “metabolism of IGSH to ICGS faster” value ([2]; conditioned medium (pre-incubated with ciPTEC for 48 h)) was 36% and the IGSH metabolized faster ([2]; medium with 10% calf serum compared to serum-free samples) was 32%. For the same compound, the Km (ɣ-GT from equine kidney) was 0.588 µM, the Vmax (ɣ-GT from equine kidney) was 25.8 μmol∙min^−1∙U^−1 and the half-life at 500 nM [3] was 0.5 h. For the same compound, the Tmax ([4]; human) was 2.8 h, the concentration at 2.5 h ([4]; human, 420 mg, Concentration, patient A, 1xdd 420mg) was 1.5 nM and the concentration at 3.8 h ([4]; human, 420 mg, Concentration, patient A, sample ID 14, T 3.8 h, 1xdd 420mg) was 0.5 nM. For the same compound, the concentration at 0.8 h ([4]; human, 560 mg, Concentration, patient A, sample ID 3, T 0.8 h, 1xdd 560mg, group abs) was 0.5 nM, the concentration at 2.8 h [4, 11] was 3.5 nM and the concentration at 4.1 h ([4]; human, 560 mg, Concentration, patient B, sample ID 7, T 4.1 h, 1xdd 560mg) was 1.5 nM. For the same compound, the concentration at 4.4 h ([4]; human, 560 mg, Concentration, patient B, sample ID 9, T 4.4 h, 1xdd 560mg) was 0.8 nM, the concentration at 2.4 h [4, 11] was 0.8 nM and the concentration at 3.9 h [4, 11] was 1.9 nM. The concentration at 3.8 h ([4]; human, 560 mg, Concentration, patient B, sample ID 20, T 3.8 h, 1xdd 560mg) was 0.8 nM, the concentration at 4.1 h ([4]; human, 560 mg, Concentration, patient B, sample ID 23, T 4.1 h, 1xdd 560mg) was 2.2 nM and the concentration at 4.4 h ([4]; human, 560 mg, Concentration, patient B, sample ID 24, T 4.4 h, 1xdd 560mg) was 1.4 nM. The Concentration ([4]; patient A, sample ID 2, T 1.4 h, 1xdd 420mg, group abs) was “< LLOQ”, the Concentration ([4]; patient A, sample ID 5, T 0.5 h, 1xdd 420mg, group abs) was “< LLOQ” and the Concentration ([4]; patient A, sample ID 6, T 0.8 h, 1xdd 420mg, group abs) was “< LLOQ”. For the same compound, the Concentration ([4]; patient A, sample ID 8, T 22.7 h, 1xdd 420mg, group trough) was “< LLOQ”, the Concentration ([4]; patient A, sample ID 10, T 22.2 h, 1xdd 420mg, group trough) was “< LLOQ” and the Concentration ([4]; patient A, sample ID 11, T 22.6 h, 1xdd 420mg, group trough) was “< LLOQ”. For the same compound, the Concentration [4, 12] was “< LLOQ”, the Concentration ([4]; patient A, sample ID 16, T 1.5 h, 1xdd 420mg, group abs) was “< LLOQ” and the Concentration ([4]; patient A, sample ID 19, T 23.3 h, 1xdd 420mg, group trough) was “< LLOQ”. For the same compound, the Concentration ([4]; patient A, sample ID 21, T 0.8 h, 1xdd 420mg, group abs) was “< LLOQ”, the Concentration [4, 13] was “< LLOQ” and the Ctrough ([4]; patients A and B, 'trough' samples n = 4, mean ± SD (range)) was <0.5 nM.

For `C=CC(=O)N1CCC[C@@H](n2nc(-c3ccc(Oc4ccccc4)cc3)c3c(N)ncnc32)C1` [Ibrutinib, reference compound], the AUC(0-t) (clinical [5]) was 0.325 µM·h, the Cmax [6] was 370 ± 180 (151–683) nM and the Ctrough [6] was 6.4 ± 2 (4.3–8.9) nM. For the same compound, the cell death (ciPTEC [7]) was “up to 50%”, the ibrutinib metabolized (ciPTEC [1]; ciPTEC, after 48 h) was “ca. 98%” and the Tmax (clinical [8]) was 2.6 h. For the same compound, the concentration at 1.4 h ([4]; human, in vivo, 420 mg, Concentration, patient A, sample ID 2, T 1.4 h, 1xdd 420mg, group abs) was 6.6 nM, the concentration at 0.5 h ([4]; human, in vivo, 420 mg, Concentration, patient A, sample ID 5, T 0.5 h, 1xdd 420mg, group abs) was 11.8 nM and the concentration at 0.8 h ([4]; human, in vivo, 420 mg, Concentration, patient A, sample ID 6, T 0.8 h, 1xdd 420mg, group abs) was 14.6 nM. The concentration at 22.7 h ([4]; human, in vivo, 420 mg, Concentration, patient A, sample ID 8, T 22.7 h, 1xdd 420mg, group trough) was 8.9 nM, the concentration at 22.2 h ([4]; human, in vivo, 420 mg, Concentration, patient A, sample ID 10, T 22.2 h, 1xdd 420mg, group trough) was 7 nM and the concentration at 22.6 h ([4]; human, in vivo, 420 mg, Concentration, patient A, sample ID 11, T 22.6 h, 1xdd 420mg, group trough) was 4.3 nM. The concentration at 2.5 h ([4]; human, in vivo, 420 mg, Concentration, patient A, 1xdd 420mg) was 683 nM, the concentration at 3.8 h ([4]; human, in vivo, 420 mg, Concentration, patient A, sample ID 14, T 3.8 h, 1xdd 420mg) was 151 nM and the concentration at 23.3 h ([4]; human, in vivo, 420 mg, Concentration, patient A, sample ID 19, T 23.3 h, 1xdd 420mg, group trough) was 5.5 nM. It also gave a concentration at 0.8 h ([4]; human, in vivo, 420 mg, Concentration, patient A, sample ID 21, T 0.8 h, 1xdd 420mg, group abs) of 143 nM, a concentration at 0.8 h ([4]; human, in vivo, 560 mg, Concentration, patient A, sample ID 3, T 0.8 h, 1xdd 560mg, group abs) of 3.5 nM and a concentration at 2.8 h [4, 14] of 234 nM. It also gave a concentration at 4.1 h ([4]; human, in vivo, 560 mg, Concentration, patient B, sample ID 7, T 4.1 h, 1xdd 560mg) of 360 nM, a concentration at 4.4 h ([4]; human, in vivo, 560 mg, Concentration, patient B, sample ID 9, T 4.4 h, 1xdd 560mg) of 192 nM and a concentration at 2.4 h [4, 14] of 551 nM. It also gave a concentration at 3.9 h [4, 14] of 578 nM, a concentration at 3.8 h ([4]; human, in vivo, 560 mg, Concentration, patient B, sample ID 20, T 3.8 h, 1xdd 560mg) of 196 nM and a concentration at 4.1 h ([4]; human, in vivo, 560 mg, Concentration, patient B, sample ID 23, T 4.1 h, 1xdd 560mg) of 497 nM. The concentration at 4.4 h ([4]; human, in vivo, 560 mg, Concentration, patient B, sample ID 24, T 4.4 h, 1xdd 560mg) was 323 nM, the Concentration [4, 12] was 15.8 nM and the Concentration [4, 13] was 0.9 nM.

For `C[C@@H](c1ncncc1F)[C@](O)(Cn1cncn1)c1ccc(F)cc1F` [Voriconazole], the “inhibition of BCRP” value (BCRP) is listed as “some inhibition”.

In the case of `N[C@H](C(=O)O)[C@@H]1CC(Cl)=NO1` [acivicin], the “effect on metabolism of IGSH in ciPTEC” value (ɣ-GT [9]) is given as “blocked” and the IC99 (ɣ-GT [10]) is given as 50 µM.
